Laboratory results as given in patent US12686877B2, “Method for producing olivetolic acid in an amoebozoa host species” (LEIBNIZ-INSTITUT FÜR NATURSTOFF-FORSCHUNG UND …, priority 2020, dated 2026).

System: D. discoideum pChR2 strain
Assay: Growth and metabolic activity monitoring (respiration activity, oxygen transfer rate)
Type: cell-based, Dictyostelium discoideum
Details: pChR2 strain supplemented with 1 mM hexanoic acid
Protocol: Growth and metabolic activity monitoring. For determining the respiration activity, the D. discoideum pChR2, pChR5 and pChR7 strains were grown at an initial density of 1×10^6 cells/mL of HL5 medium supplemented with 1% [w/v] glucose and 20 μg/mL G418 in the presence or absence of 20 μg/mL doxycycline and 1 mM hexanoic acid as indicated. The respiration activity was measured by using the Kuhner TOM (transfer-rate online measurement) system equipped with oxygen partial pressure sensors and infrared sensors to calculate the oxygen transfer rate (OTR) and the carbon dioxide transfer rate (CTR). The cultures were grown in 250 mL TOM flasks for 144 h at 140 rpm and 22° C. without interruption to allow a constant OTR assessment. A filling volume of 52 mL was calculated in order to allow a maximum OTR of 8.5 mmol/L/h43, similar to culture conditions of previous experiments using 25 mL per 100 mL Erlenmeyer shake flasks.

CCCCCC(=O)O [hexanoic acid] was tested, and the effect on growth was “initial growth inhibitory effect”, the “effect on maximum OTR” value was “did not change the maximum OTR” and the “time at which the oxygen transfer rate (OTR) peaked” value (77 h without supplementation) was 92 h.
